In the assay the test system is MDA-MB-468 cell line. Kind of assay: Resazurin viability assay. The note with it: co-treatment with BEZ235, sub-toxic doses combined, 24 hrs, MDA-MB-468 cells (FIG. 1). Format: cell-based. The method, then:
Cell Culture. The MDA-MB-468 cell line was from ATCC. This cell line was established from a pleural effusion of patient with metastatic breast adenocarcinoma. The cells were maintained in RPMI medium supplemented with 10% (v/v) FBS, 0.3 mg/mL L-glutamine, and 0.1 mg/mL gentamicin at 37° C. in 5% CO2. Sub-culture using trypsin-EDTA was performed every 3-4 days with a split ratio of 1:3-1:6 to ensure actively proliferating cells.
Resazurin Viability Assay. Cells were seeded in fully supplemented medium at a density of 7 000 cells per well in 96 well plates. After 24 hrs of cultivation, when the cells were ˜60% confluent, the medium was replaced with serum free medium to ensure synchronization of the cells and to increase cell sensitivity to treatment. Following 16 hrs of serum starvation, the medium was replaced with fresh serum free medium with or without Compounds 1 and 2 (Avexxin, Norway), and NVP-BEZ235 (Cayman Chemicals, US) or solvent (DMSO, Sigma Aldrich, US). The cells were observed under the microscope to evaluate possible morphology changes and signs of stress before the addition of resazurin according to the manufacturers instructions (RnD Systems, UK). Resazurin was metabolized for 2 hrs (37° C., 5% CO2) before fluorescence was read at 544 nm excitation and 590 nm emission wavelengths (BioTek Synergy HT).

In the case of `CCCCCCCOc1ccc(OCC(=O)c2nc(C(=O)OC)cs2)cc1` [Compound 1], the “synergistic effects on breast cancer cell viability compared to each inhibitor alone” value is reported as “synergistic effects”. For the setting “listed as compound 1”, the “synergistic effects on breast cancer cell viability compared to each inhibitor alone” value was “the synergistic effect is pronounced”.
